Series [1] relates to rat ventral mesencephalan neurons. The series can be described thus: [3H]Dopamine Cell Culture Assay (6-OHDA neurotoxicity). The settings on record: 6-OHDA 30 μM, uptake 22 hrs after exposure. The format is cell-based. On the procedure:
Cultures of dopaminergic neurons were prepared according to a modification of the procedure described by Raymon and Leslie (J. Neurochem. 62:1015-1024, 1994). Time-mated pregnant rats were sacrificed on embyronic day 14-15 (crown rump length 11-12 mm) and the embryos removed by cesarean section. The ventral mesencephalon, containing the dopaminergic neurons, was dissected from each embryo. Tissue pieces from approximately 48 embryos were pooled and dissociated both enzymatically and mechanically. An aliquot from the resulting cell suspension was counted and the cells were plated in high glucose DMEM/F12 culture medium with 10% fetal bovine serum at a density of 1×10^5 cells/well of a Biocoat poly-D-lysine-coated 96-well plate. The day following plating was considered 1 day in vitro (DIV). Cells were maintained in a stable environment at 37° C., 95% humidity, and 5% CO2. A partial medium change was performed at 3 DIV. […]
[^3H]Dopamine uptake is used as a measure of the health and integrity of dopaminergic neurons in culture (Prochiantz et al., PNAS 76: 5387-5391, 1979). […] Briefly, cells treated with 6-OHDA in the presence and absence of 5-amino-anthra(9,1-cd)isothiazol-6-one were assessed in the uptake assay 22 hrs after exposure to 6-OHDA. […] Radioactivity was removed and the cultures were washed 3× with ice cold PBS. […]

Series [2] can be described thus: Brain-Blood Plasma Distribution In Vivo. Further details: species or system Sprague-Dawley rats. The settings on record: rat. On the procedure:
5-Amino-anthra(9,1-cd)isothiazol-6-one was administered intravenously (10 mg/kg) into the veins of Sprague-Dawley rats. After 2 hr, blood samples were obtained from the animals and their vascular systems were perfused with approximately 100 mL of saline to rid their brains of blood. The brains were removed from the animals, weighed, and homogenized in a 50 mL conical tube containing 10 equivalents (w/v) of methanol/saline (1:1) using a Tissue Tearer (Fischer Scientific). The homogenized material was extracted by adding 600 μL of cold methanol to 250 μL of brain homogenate vortexed for 30 sec and subjected to centrifugation for 5 min. After centrifugation, 600 μL of the resulting supernatant was transferred to a clean tube and evaporated at room temperature under reduced pressure to provide a pellet. […] The brain homogenate analysis samples, plasma analysis samples, and standard analysis samples were analyzed and compared using HPLC by injecting 100 μL of a sample onto a 5 μm C-18 Luna column (4.6 mm×150 mm, commercially available from Phenomenex of Torrance, Calif.) and eluting at 1 mL/min with a linear gradient of 30% aqueous acetonitrile containing 0.1% trifluoroacetic acid to 90% aqueous acetonitrile containing 0.1% trifluoroacetic acid over 8 minutes and holding at 90% aqueous acetonitrile containing 0.1% trifluoroacetic acid for 3 min. with absorbance detection at 450 nm. […]

Series [3] is described as follows: Solubility in aqueous media. The format is physicochemical.

Consider `Nc1ccc2snc3c2c1C(=O)c1ccccc1-3` [5-amino-anthra(9,1-cd)isothiazol-6-one], for which the “protection of dopaminergic neurons ([3H]dopamine uptake)” value in series [1] was “protects rat ventral mesencephalan neurons from the toxic effects of 6-OHDA”. Moreover, the brain-drug concentration entry in series [2] (10 mg/kg intravenously, 2 hr post-dose) is reported as “approximately 65 nmole/g”. In addition, in series [2] (following intravenous administration), the blood-brain barrier crossing entry was “crosses the blood-brain barrier to a significant extent”. For the same compound, the “solubility in aqueous media” value in series [3] is listed as “limited solubility”.

These data come from patent US20070270448A1, “Methods of Using and Compositions Comprising a Jnk Inhibitor for the Treatment and Management of Asbestos-Related Diseases and Disorders” (CELGENE CORPORATION, priority 2003, published 2007).
